“And” between values parts separate entries of the source, which are not always exact repeats. Equal entries are not always repeated. “Also recorded” adds a separate entry of the source.
Assays:
CaR2 = molecular target: T1, CaR2 (Homo sapiens, UniProt Q5T6X5, P91S); test: FLIPR intracellular Ca^++ assay in HEK293 clone expressing CaR2 (HEK-167B12-2.1); type: cell-based; conditions: for FLIPR response / activation of CaR2 by ligand: initial ligand testing, ligand alone; for effect of Pb on activation of CaR2 by combined OC and Ca^++: OC and Ca^++ pre-incubated with / in the presence of Pb
T1 construct: molecular acquisition of the full-length cDNA led to the identification of the six coding exons; expressed in transfected cells
T1 sequence (Q5T6X5 19-926 P91S): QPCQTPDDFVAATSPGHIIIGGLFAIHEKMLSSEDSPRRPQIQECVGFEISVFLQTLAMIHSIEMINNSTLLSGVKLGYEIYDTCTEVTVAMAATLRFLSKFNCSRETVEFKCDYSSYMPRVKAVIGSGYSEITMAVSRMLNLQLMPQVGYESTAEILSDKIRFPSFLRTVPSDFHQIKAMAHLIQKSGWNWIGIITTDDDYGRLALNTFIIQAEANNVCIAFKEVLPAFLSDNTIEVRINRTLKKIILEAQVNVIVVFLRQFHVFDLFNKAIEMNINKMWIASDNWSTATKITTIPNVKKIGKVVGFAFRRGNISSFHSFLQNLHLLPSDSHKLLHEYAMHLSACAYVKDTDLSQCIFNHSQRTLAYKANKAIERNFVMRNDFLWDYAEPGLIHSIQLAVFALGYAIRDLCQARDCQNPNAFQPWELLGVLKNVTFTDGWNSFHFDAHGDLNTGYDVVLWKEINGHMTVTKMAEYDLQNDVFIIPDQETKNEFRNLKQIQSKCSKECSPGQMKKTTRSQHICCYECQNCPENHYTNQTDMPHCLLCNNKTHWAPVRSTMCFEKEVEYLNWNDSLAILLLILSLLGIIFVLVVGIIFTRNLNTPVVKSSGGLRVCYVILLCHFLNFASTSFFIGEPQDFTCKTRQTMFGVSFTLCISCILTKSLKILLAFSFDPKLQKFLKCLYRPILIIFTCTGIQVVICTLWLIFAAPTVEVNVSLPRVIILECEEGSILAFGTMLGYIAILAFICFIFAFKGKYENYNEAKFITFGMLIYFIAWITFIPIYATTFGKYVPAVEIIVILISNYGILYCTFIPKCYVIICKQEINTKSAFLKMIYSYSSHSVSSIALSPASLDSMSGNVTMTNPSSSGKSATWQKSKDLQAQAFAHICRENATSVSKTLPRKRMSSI
Method: To facilitate pharmacological experimentation, CaR2 cDNA was cloned into the mammalian expression vector pcDNA 3.1 (+) Neo with or without a COOH-terminal FLAG epitope. The transgene was introduced into the HEK293 cell line and stable transfectants were identified. These clones were analyzed for CaR2 expression by qPCR and Western blotting to identify those clones that were suitable for ligand identification.
Based on the homology to the characterized goldfish odorant receptor 5.24, initial studies investigated the ability of 18 naturally occurring amino acids to trigger changes of intracellular Ca^++ levels in the transfected cells, as measured with a fluorescent imaging plate reader (FLIPR).
(§1) Intracellular Ca^++ was measured using a fluorometric imaging plate reader (FLIPR) [Molecular Devices]. Cells were seeded at a density of 1×10^5/well (96-well plate) or 1×10^4/well (384-well plate) in collagen coated plates and incubated overnight at 36.9° C. with 5% CO2. Medium was aspirated from the plates and replaced with equal volumes of a no wash calcium dye (Molecular Devices) and modified Hank's buffered saline solution [Ca^2+-free, Mg^2+-free] (140 mM NaCl, 5.4 mM KCl, 0.64 mM KH2PO4, 3 mM NaHCO3, 5.5 mM C6H12O6, 20 mM HEPES, 2.5 mM Caprylic acid (or 2.5 mM probenecid)). The plates were incubated for 1 hour at 36.9° C. with 5% CO2. FLIPR was used to measure changes in intracellular calcium as relative fluorescence upon activation by ligand.

parental HEK293 cells = test: FLIPR intracellular Ca^++ assay in parental HEK293 cells (no CaR2); type: cell-based
Method: as §1
(§2) Also, the apical side of cells lining tubules in Henle's loop in kidney and in epithelial cells lining prostate ducts are microenvironments where a higher than standard extracellular Ca^++ can be expected.
(§3) Having shown that high calcium levels activate CaR2, the effects of several agents known to modulate bone metabolism were determined.

Saos-2 osteoblasts = test: Osteoblast survival and proliferation in high mM Ca^++; type: cell-based
From the text: Saos-2 osteoblasts (ATCC-HTB-85) express CaR2 as determined by Western Blotting.

CaR [1] = conditions: CaR in transfected HEK 293 cells; read-out: EC50 for Ca^++ at CaR; cited from earlier work
CaR [2] = test: Activation of CaR in transfected HEK 293 cells; type: cell-based; conditions: HEK293 cells that express the previously characterized CaR
Method: as §1, §2, §3

Which “CaR2 activation by Ca^++” value (CaR2; 10 mM Ca^++ (FIG. 4)) does the source give for `[Ca+2]` [Ca^++, calcium] here?
The value was “modest activation”.

And the “CaR2 activation by Ca^++” value (CaR2; 40 mM Ca^++ (FIG. 4))?
The value was “robustly activated”.

And the EC50 (CaR2; HEK293 clone expressing CaR2, FLIPR)?
The EC50 was 85 mM.

What about the “calcium level causing marked increase in fluorescence signal (intracellular Ca^++)” value (CaR2; clone expressing CaR2 (FIG. 2)) of the same molecule?
Its value is > 20 mM.

What about the “FLIPR response / activation of CaR2 by ligand” value (shortened to “FLIPR response / activation”) (CaR2) of the same molecule?
The value was “failed to elicit a positive FLIPR response”.

What about the “increase in fluorescence signal by high calcium levels” value (parental HEK293 cells; parental cell line, >20 mM calcium) of the same molecule?
Its value is “not observed”.

And the “growth of Saos-2 cells” value (Saos-2 osteoblasts; buffer containing 2 mM Ca^++)?
Its value is “grew”.

What about the “proliferation and survival of Saos-2 cells” value (Saos-2 osteoblasts; medium containing 10 mM Ca^++) of the same molecule?
Its value is “did not proliferate”.

And the “proliferation and survival of Saos-2 cells” value (Saos-2 osteoblasts; medium containing 40 mM Ca^2+)?
Its value is “survived and proliferated normally”.

What about the EC50 (CaR [1]) of the same molecule?
Its EC50 is 4.1 mM and 4 mM.

For `NCCCC(=O)O` [GABA, reference compound], which “FLIPR response / activation” value (CaR2) is on record?
The value was “failed to elicit a positive FLIPR response”.

Which “FLIPR response / activation” value (CaR2) does the source give for `CN[C@H](CC(=O)O)C(=O)O` [NMDA, reference compound] here?
Its value is “failed to elicit a positive FLIPR response”.

Which “effect of Pb on activation of CaR2 by combined OC and Ca^++” value (CaR2) does the source give for `[Pb+2]` [Pb^++, reference compound] here?
Its value is “blocked”.

What about the “effect of Pb on activation of CaR2 by combined OC and Ca^++” value (CaR2; listed as Pb^2+) of the same molecule?
Its value is “reversed”.

With “OC: vitamin K-dependent bone calcium binding protein, 49 amino acids, synthesized by osteoblasts (YLYQWLGAPVPYPDPLEPRREVCELNPDCDELADHIGFQEAYRRFYGPV; UniProt P02818 52-100, looked up)” as the molecule, how does the “synergistic effect of OC and calcium on CaR2” value (CaR2; OC and calcium added separately, not pre-incubated) read?
The value was “not when both ligands are added separately”.

And the “effect of OC on activation of CaR2 by Ca^++” value (CaR2; OC pre-incubated with calcium)?
Its value is “CaR2 was activated at lower calcium levels and the activation by high mM calcium was potentiated; also recorded: dose-dependent effect; also recorded: activates CaR2 when pre-incubated with 10 mM Ca^++ in a dose-dependent manner; also recorded: increases the sensitivity of CaR2 to Ca^++”.

What about the “activation of CaR2 by OC” value (CaR2; in the absence of calcium) of the same molecule?
The value was “does not activate CaR2”.

And the “effect of OC and Ca^++” value (CaR [2])?
The value was “not observed”.

And the “effect of OC and Ca^++” value (parental HEK293 cells; parental HEK293 cells that do not express CaR2)?
Its value is “not observed”.

For calcitonin [CT], which “intracellular Ca^++ in the CaR2 clone” value (CaR2; either ligand (BMP-2 or CT) added alone, absence of calcium) is on record?
The value was “not seen”.

Reference: patent US8460894B2, “Calcium-sensing receptor 2 (CaR2) and methods for using” (ABT Holding Company, priority 2002, dated 2013)
